PMC8746705, “Comparison of Experimental Strategies to Study L-Type Amino Acid Transporter 1 (LAT1) Utilization by Ligands” (Molecules, 2021)

Legend:
LAT1 [1] = biological target: T1, LAT1 (Mus musculus, UniProt Q9Z127); test: Cis-inhibition of radiolabelled LAT1-probe substrate uptake into BV2 cells; type: cell-based; conditions: for IC50: 5 min, mean ± SD
Protocol: (§1) After removal of the culture medium, the BV2 cells were carefully washed with pre-warmed HBSS (Hank’s balanced salt solution) containing 125.0 mM choline chloride, 4.8 mM KCl, 1.2 mM MgSO4, 1.2 mM KH2PO4, 1.3 mM CaCl2, 5.6 mM glucose, and 25.0 mM HEPES (pH 7.4 adjusted with 1 M NaOH). Pre-incubation was done with 500 μL of pre-warmed HBSS at 37 °C for 10 min before adding substrates (250 μL in HBSS) for the uptake experiments.
The ability of compounds 1–15 to inhibit the uptake of a known LAT1 substrate [^14C]-L-leucine was then evaluated by incubating the cells at 37 °C for 5 min in uptake buffer pH 7.4 (250 μL) containing 0.2 µCi/mL of [^14C]-L-leucine, or 2 µCi/mL of [^3H]-L-methionine, [^3H]-L-tryptophan or [^3H]-L-kynurenine (PerkinElmer, Waltham, MA, USA) and 0.1–1000 μM of the studied compound (or HBSS as blank). After incubation, the uptake was stopped by adding 250 µL of ice-cold HBSS, and the cells were washed two times with ice-cold HBSS. The cells were then lysed with 500 μL of NaOH (0.1 M) for 60 min and the lysate was mixed with 3.5 mL of Emulsifier safe cocktail (Ultima Gold, PerkinElmer, Waltham, MA, USA). The radioactivity in the cells was measured by liquid scintillation counting (MicroBeta^2 counter, PerkinElmer Waltham, MA, USA). Half of the maximum inhibitory concentration (IC50) values were calculated by nonlinear regression analysis (fitting the curve to log (concentration) vs. remaining normalized […]).

LAT1 [2] = biological target: T1, LAT1; test: Inhibition type of [14C]-L-Leu uptake (Hanes-Woolf plots) in BV2 cells; type: cell-based; conditions: for Vmax of [14C]-L-Leu uptake: 0.010–0.20 µM [14C]-L-Leu in the presence of the compound at its IC50, mean ± SD, n = 3–4; for Vmax of [14C]-L-Leu uptake / Inhibition Type: BV2; for Inhibition Type: of [14C]-L-Leu uptake, concluded from Km and Vmax
Protocol: as §1
To evaluate the inhibition type of studied compounds, the BV2 cells were incubated with 0.010–0.20 μM [^14C]-L-leucine together with the studied compound. The concentration of compounds was selected according to the compound-specific IC50 values. The experiment was then carried out as described for the [^14C]-L-leucine uptake above and the radioactivity was measured by liquid scintillation counting. Hanes-Woolf plots were created by setting the ratio of initial substrate concentration to the reaction velocity ([S]/v) against [^14C]-L-leucine concentration (µM). The linear regression was used to calculate Km value (negative value of x-intercept) and Vmax value (1/slope) for [^14C]-L-leucine.

[3] = Time-dependent cellular uptake of compounds into BV2 cells (LC-MS/MS); type: cell-based, mouse; conditions: mouse, BV2 microglia cells, 100 µM compound, 1–60 min, mean ± SD, n = 3, read-out: T½ of cellular uptake
Protocol: (§2) For the time-dependent cellular uptake experiments, the BV2 cells on 24-well plates were incubated with studied compounds (100 μM) in a pre-warmed HBSS buffer (250 μL) at 37 °C for 1–60 min. Subsequently, the cells were washed three times with an ice-cold HBSS and lysed with 250 μL of NaOH (0.1 M) for 60 min. The lysates were diluted with acetonitrile (ACN) including the selected internal standard (diclofenac to all compounds) with a ratio of 1:3 and centrifuged at 10,000× g for 10 min. The samples were analyzed by the liquid chromatography-tandem mass spectrometric (LC-MS/MS) methods as described below. The concentrations of each compound in cell lysates were calculated from the standard curve that was prepared by spiking known amounts of compounds to ACN including the selected internal standard and then normalized with protein concentration. The protein concentrations on each plate were determined as a mean of three samples by Bio-Rad Protein Assay, based on the Bradford dye-binding method, using bovine serum albumin (BSA) as a standard protein and measuring the absorbance (595 nm) by multiplate reader (EnVision, Perkin Elmer, Inc., Waltham, MA, USA).
(§3) The studied compounds (1–15) were analyzed by using Agilent 1200 Series Rapid Resolution LC System together with an Agilent 6410 Triple Quadrupole Mass Spectrometer equipped with an electrospray ionization source (Agilent Technologies, Santa Clara, CA, USA). The chromatographic separations of analytes were achieved by using a reversed-phase Zobrax SB-C18 column (50 mm × 2.1 mm, 1.8 μm; Agilent Technologies, Santa Clara, CA, USA) by eluting the samples with 0.1% formic acid in water (A) and 0.1% formic in ACN (B). Labetalol and diclofenac were used as internal standards (ISTD) for the prodrugs and parent drugs, respectively. The transitions used for the quantification at the positive ion mode and chromatographic conditions of each compound and their parent drugs are listed in Table S1. The methods of compounds 1–11 have been reported earlier, while the methods of compounds 12–15 are reported herein for the first time.

[4] = system: immortalized mouse microglia (BV2); test: as above; type: cell-based
Protocol: as §2, §3

LAT1 [5] = biological target: T1, LAT1; test: Concentration-dependent cellular uptake into BV2 cells, Eadie–Hofstee analysis, Transport Type 1 (LAT1); type: cell-based; conditions: 1–200 µM, 30 min, BV2; Eadie–Hofstee; mean ± SD, n = 3
Protocol: (§4) For the concentration-dependent cellular uptake experiments, the BV2 cells on 24-well plates were incubated with studied compounds (1–200 μM) in pre-warmed HBSS buffer (250 μL) at 37 °C for 30 min. The experiment was then carried out as described for the time-dependent uptake above and the concentration of studied compounds in the cell lysate was analyzed by the LC-MS/MS methods described above and the results were normalized to the total protein concentration. The distinct transport mechanisms were separated from the Michaelis-Menten kinetics by using Eadie–Hofstee plot.
as §3

LAT1 [6] = biological target: T1, LAT1; test: Cellular uptake of compounds in the presence of LAT1-inhibitor (KMH-233); type: cell-based; conditions: 100 µM compound, 100 µM KMH-233, 30 min, BV2
Protocol: The competitive uptake in the presence of LAT1-inhibitor (KMH-233) was carried out as described above with HBSS buffer solution containing 100 µM of the studied compounds. The cells were pre-incubated with 100 µM LAT1-inhibitor for 10 min and the incubation mixture was removed before adding the studied compound and LAT1-inhibitor on the cells. The competitive uptake (30 min) with the inhibitor was then carried out as the normal uptake described above. The amounts of studied compounds were analyzed by the LC-MS method and calculated from the spiked standard curve and normalized with the protein concentrations.

LAT1 [7] = biological target: T1, LAT1; test: Cellular uptake of L-leucine after pre-incubation of BV2 cells with the compounds; type: cell-based; conditions: 100 µM (L-glutamine 2 mM) pre-incubated 10 min or 3 h, L-leucine 1–400 µM, 5 min
Protocol: The ability of compounds 1–15 to affect the uptake of a known LAT1 substrate L-leucine was evaluated by pre-incubating the BV2 cells at 37 °C for 10 min or 3 h with uptake buffer pH 7.4 (250 μL) containing 100 µM of compounds 1–15 or thyroxin (T4), or known nuclear receptor inducible compounds, phenobarbital (constitutive androstane receptor, CAR), and dexamethasone (pregnane X receptor, PXR) as controls. […] After incubation, the reaction was stopped by adding 250 µL of ice-cold HBSS, and the cells were washed two times with ice-cold HBSS. The cells were then lysed with 500 μL of 0.1 M NaOH (60 min) and the lysate was mixed with 3.5 mL of Emulsifier safe cocktail (Ultima Gold, PerkinElmer, Waltham, MA, USA). The radioactivity in the cells was measured by liquid scintillation counting (MicroBeta^2 counter, PerkinElmer Waltham, MA, USA). The results were multiplied by the amount of un-labeled proportion of L-leucine in each sample.

LAT1 [8] = test: Quantitative expression of LAT1 on the BV2 plasma membrane (LC-MS proteomics); type: cell-based, mouse; conditions: BV2 cells incubated 24 h; normalized to Na+/K+ATPase; compared to untreated control
Protocol: The protein expression levels of LAT1, in the plasma membrane fractions of BV2 cells were quantified using multiplexed MRM analysis according to the protocol described by Uchida et al.. First, the crude membrane fractions were isolated from three distinct sets of cell culture plates using Membrane Protein Extraction Kit (BioVision Incorporated, Milpitas, CA, USA) according to the manufacturer’s instructions. The protein content for each fraction was measured by Bio-Rad Protein Assay, based on the Bradford dye-binding method (EnVision, Perkin Elmer, Inc., Waltham, MA, USA). A total amount of 50 µg protein from each fraction was solubilized/denatured in 7 M guanidine hydrochloride, 0.5 M Tris-HCl and 10 mM EDTA-Na. The proteins were then reduced by dithiothreitol (1:50, w/w) and S-carboxymethylated by iodoacetamide (1:20, w/w). The alkylated proteins were precipitated by methanol/chloroform/water (4:1:3) and centrifuged at 18,000× g for 5 min at 4 °C. The pellet was resuspended in 6 M urea and mixed for 10 min at room temperature before the dilution with 0.1 M Tris-HCl (pH 8.5) to a final concentration of 1.2 M urea, and dissolved completely by intermittent sonication (Branson 3510, Danbury, CT, USA). The dissolved proteins were first digested with LysC (1/100, w/w) and 0.05% ProteaseMax (Promega Biotech AB, Nacka, Sweden) for 3 h at room temperature. Then, the samples were spiked with 10 µL (30 fmol) of the labelled peptides for absolute quantification (JPT Peptide Technologies GmbH, Berlin, Germany) (Table S2). The samples were incubated with (1/100, w/w) TPCK-Trypsin (Promega Biotech AB, Nacka, Sweden) for 18 h at 37 °C. The tryptic digestion was then quenched by adding 40 µL of 5% formic acid. The samples were then centrifuged at 18,000× g for 5 min at 4 °C, and the supernatants were transferred to vials for analysis.
The digested peptides were analyzed using an ultra-performance liquid chromatography system coupled with a triple quadrupole mass spectrometer with a heated electrospray ionization source in the positive mode (UPLC 1290 and MSD 6495, Agilent Technologies, Santa Clara, CA, USA). A total amount of 20 µL of the digested peptides (10 µg) was separated using AdvanceBio Peptide Map 2.1 × 250 mm, 2.7 μm column (Agilent Technologies, Santa Clara, CA, USA) and LC eluents of 0.1% formic acid in water (A) and acetonitrile (B). The peptides were eluted following a constant flow rate of 0.3 mL/min and a gradient of 2–7% B for 2 min, followed by 7–30% B for 48 min, 30–45% B for 3 min, and 45–80% B for 2.5 min before re-equilibrating the column again for 4.5 min. LAT1 was quantified based on the ratio between the light and heavy standard peptides, as described previously (Table S2). Data was acquired using Agilent MassHunter Workstation Acquisition (Agilent Technologies, Data Acquisition for Triple Quadrupole, version B.03.01) and processed by using Skyline software (version 20.1). The results were normalized to a housekeeping protein Na+/K+ATPase and expressed as fmol/µg of the total amount of protein in the samples.

Transport Type 2 = test: Concentration-dependent cellular uptake into BV2 cells, Eadie–Hofstee analysis, Transport Type 2; type: cell-based, mouse; conditions: 1–200 µM, 30 min, mean ± SD, n = 3
Protocol: as §4, §3

[9] = probe [3H]-L-Kynu, n = 3–4, read-out: IC50 of [3H]-L-Kynu uptake
[10] = probe [3H]-L-Met, n = 3–4, read-out: IC50 of [3H]-L-Met uptake
[11] = probe [3H]-L-Trp, n = 3–4, read-out: IC50 of [3H]-L-Trp uptake
[12] = 100 µM compound, 1–60 min, mean ± SD, n = 3

T1 sequence (Q9Z127 whole entry): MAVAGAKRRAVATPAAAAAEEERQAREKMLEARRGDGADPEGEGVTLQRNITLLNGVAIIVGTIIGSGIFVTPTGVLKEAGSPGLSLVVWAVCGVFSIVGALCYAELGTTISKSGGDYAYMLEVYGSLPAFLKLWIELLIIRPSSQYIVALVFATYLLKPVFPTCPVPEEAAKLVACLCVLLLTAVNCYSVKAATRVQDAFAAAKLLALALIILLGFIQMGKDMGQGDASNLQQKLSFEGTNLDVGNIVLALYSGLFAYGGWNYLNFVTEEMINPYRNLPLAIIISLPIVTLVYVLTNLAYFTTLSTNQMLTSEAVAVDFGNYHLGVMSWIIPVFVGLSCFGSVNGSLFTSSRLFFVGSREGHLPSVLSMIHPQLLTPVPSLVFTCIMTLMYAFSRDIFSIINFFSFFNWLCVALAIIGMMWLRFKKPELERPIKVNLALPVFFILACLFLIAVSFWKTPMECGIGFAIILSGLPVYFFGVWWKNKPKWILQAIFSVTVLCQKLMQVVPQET
T1 sequence (P10852 whole entry partner): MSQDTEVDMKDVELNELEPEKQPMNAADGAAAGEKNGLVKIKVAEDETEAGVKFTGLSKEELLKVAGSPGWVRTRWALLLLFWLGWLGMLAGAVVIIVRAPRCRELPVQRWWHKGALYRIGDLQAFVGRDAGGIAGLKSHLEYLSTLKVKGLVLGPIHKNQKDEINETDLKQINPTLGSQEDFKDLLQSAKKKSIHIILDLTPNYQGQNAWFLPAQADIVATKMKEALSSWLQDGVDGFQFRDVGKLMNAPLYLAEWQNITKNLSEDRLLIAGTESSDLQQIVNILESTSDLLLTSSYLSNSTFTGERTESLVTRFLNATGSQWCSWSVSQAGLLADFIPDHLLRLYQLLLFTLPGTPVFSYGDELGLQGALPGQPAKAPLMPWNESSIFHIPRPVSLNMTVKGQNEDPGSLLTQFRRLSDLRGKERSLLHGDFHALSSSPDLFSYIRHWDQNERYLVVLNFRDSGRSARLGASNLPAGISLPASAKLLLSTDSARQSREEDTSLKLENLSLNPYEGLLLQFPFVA

SMILES | IC50 (LAT1 [1]; [9]) [µM] | IC50 (LAT1 [1]; [10]) [µM] | IC50 (LAT1 [1]; [11]) [µM] | Vmax of [14C]-L-Leu uptake (LAT1 [2]) [nmol/min/mg] | Inhibition Type (LAT1 [2]) | half-life at 100 μM [3] [min] | Max. cellular uptake [4, 12] | Km (LAT1 [5]) [µM] | Transport Type 1 (LAT1) Vmax (LAT1 [5]) [pmol/mg/min] | Cellular uptake in the presence of LAT1-inhibitor (LAT1 [6]) | Effect on cellular uptake of L-Leu after pre-incubation (LAT1 [7]) | LAT1 expression on the plasma membrane (LAT1 [8]) | also measured
CC(C)Cc1ccc([C@H](C)C(=O)Nc2cccc(C[C@H](N)C(=O)O)c2)cc1 [Compound 10] | 7.7 ± 1.1 | 9.6 ± 1.6 | 43.4 ± 1.5 | 2.151 ± 0.066 | Mixed type | < 1 | 4.14 ± 0.31 nmol/mg of protein | 22 ± 6 | 205 ± 41 | only reductive trends were seen | – | – | IC50 (LAT1 [2]; Table 2, compound concentration used in the inhibition type study, corresponding to IC50 of [14C]-L-Leu uptake): 13 µM; T½ of cellular uptake [4, 12]: 0.87 ± 0.55 min; LAT1-substrate or LAT1-binder ([4]; concluded from time-dependent uptake, 100 µM): LAT1-binders rather than substrates
NC(=O)CC[C@H](N)C(=O)O [L-glutamine, reference compound] | – | – | – | – | – | – | – | – | – | – | decreased the amount of L-Leu inside the cells | – | –
CCC1(c2ccccc2)C(=O)NC(=O)NC1=O [phenobarbital, reference compound] | – | – | – | – | – | – | – | – | – | – | – | did not have any effect on LAT1 expression | –
COc1cc(/C=C/C(=O)Nc2cccc(C[C@H](N)C(=O)O)c2)ccc1O [Compound 6] | 54.3 ± 1.3 | > 100 | > 100 | 3.224 ± 0.077 | Non-competitive | 9.38 ± 2.33 | 1.11 ± 0.09 nmol/mg of protein | 3.6 ± 0.4 | 0.11 ± 0.01 | inhibited significantly | induced the uptake of L-Leu | – | Inhibition of LAT1-probe substrate uptake / LAT1 affinity (LAT1 [1]; over all probe substrates): not able to inhibit the LAT1-probe substrate uptake very effectively; IC50 (LAT1 [1]; probe [14C]-L-Leu, n = 3–4, read-out: IC50 of [14C]-L-Leu uptake): > 100 µM; Km (Transport Type 2): 78 ± 16 µM; Transport Type 2 Vmax (Transport Type 2): 0.26 ± 0.02 pmol/mg/min
C[C@@H]1C[C@H]2[C@@H]3CCC4=CC(=O)C=C[C@]4(C)[C@@]3(F)[C@@H](O)C[C@]2(C)[C@@]1(O)C(=O)CO [dexamethasone, reference compound] | – | – | – | – | – | – | – | – | – | – | – | did not have any effect on LAT1 expression | –
